Where two headings read alike, the source gives them in different places.
Experiments:
[1] = test system: Vesicular Stomatitis Virus (VSV); format: cell-based; settings: Table 6A: 20 mM glutathione+2 eq base only, no PIC-1
red blood cells = format: cell-based; settings: unit 6: 0.2 mM GSH+2 eq base, no PIC-1
Description: In another assay, the rabbit polyclonal sera may be reacted with treated red blood cells. After washing off unbound antibody, a FITC labeled goat anti-rabbit Fab′2 fragment (anti H+L chains, Caltag) is added. The binding of FITC label to the red blood cells correlates with the amount of acridine bound to the red blood cell surface, and is assessed by FACScan™ analysis (Becton, Dickinson and Co., NJ). The relative modification of the red blood cells is determined from the FACScan™ mean fluorescence value.
A 20 mL sample of leukoreduced whole blood (Blood Source, Sacramento, Calif.) was centrifuged at 4,100×g for 5 minutes at room temperature in each of four 50 mL centrifuge tubes. The supernatant was removed from each tube to provide red cell concentrate (RCC). […] For each washed RCC, cells were resuspended in 5 mL of the solution used for washing. This is now referred to as the RBC test sample. […] These samples were incubated for 20 hours at room temperature. After incubation, the RBC were washed in BBS (Blood Bank Saline, 0.9% saline, unbuffered, Fisher Scientific) and were diluted to a final hematocrit of 4%. A 25 μL aliquot of each was mixed with 15 μL of rabbit polyclonal anti-acridine sera diluted 1:100 in BBS and the mixture was incubated at 37° C. for 30 minutes. The cells were subsequently washed with 1.5 mL BBS. After washing was complete, the cells were mixed with 50 μL of FITC labeled goat anti-rabbit Fab′2 fragment (1:64 dilution in BBS) and incubated at 37° C. for 30 minutes. […] Note that the quenching improves as glutathione is neutralized with increasing amounts of sodium hydroxide.
The FACScan analysis of the binding of rabbit anti-acridine sera to treated red cells was used to assess a variety of quenching conditions. […] The tables represent data from two different experiments, each with samples treated under standard conditions or with 20 mM neutralized glutathione. […] The data within an experiment provides the relative efficacy of the various treatments. Because the assay may depend on the lot of red blood cells used, the absolute values of mean fluorescence may vary from one study to the next, such that relative values should only be compared within a given experiment. […] Neutralized glutathione at 20 mM results in close to background levels.
An untreated control sample as well as a standard sample (co-addition of 2 mM acidic glutathione with 0.2 mM PIC-1) were also assessed.
Full units of red cell concentrates (Interstate Blood Bank, Inc., Memphis, Tenn.) were leukoreduced. A volume of 200 mL of this RCC (80% hematocrit) was mixed with 94 mL of Erythrosol or 100 mL of Adsol (Baxter Healthcare Corp., Deerfield, Ill.) as control (unit 1). A volume of 20 mL 8% dextrose was used to dissolve PIC-1 (mg) and acid glutathione (mg) and added to one unit to provide 0.2 mM PIC-1 and 2 mM glutathione (unit 2). […] For the glutathione, 1.2 mL of 10 N NaOH was added (2 equivalents). The PIC-1 was mixed with the unit, followed 1 minute later (unit 3) or 5 minutes later (unit 4) by glutathione. For unit 5, neutralized glutathione was mixed first, followed 10 minutes later by the PIC-1. […] All units were mixed by grasping the ends of the blood bag and mixing in a FIG. 8 motion 30 times. These were then incubated at room temperature for 20 hours total. A compound adsorption device (CAD), comprising a polymeric resin contained within a mesh pouch, was used for all but the control sample. This device is intended to remove residual PIC-1, PIC-1 breakdown products, and glutathione from the samples. Samples were incubated for 8 hours, then transferred to a second blood bag containing the CAD and incubated for an additional 12 hours. Following the room temperature incubation, samples were transferred to a refrigerator (4° C.) and stored up to 43 days.

Compound: N[C@@H](CCC(=O)N[C@@H](CS)C(=O)NCC(=O)O)C(=O)O [glutathione, γ-L-glutamyl-L-cysteinyl-glycine]
- Log VSV reduction [1]: −0.04 Log
- Log VSV titer [1]: 6.25 Log
- mean fluorescence (red blood cells; 16C day 0.8): 2.16
- mean fluorescence (red blood cells; 16C day 2): 1.78
- mean fluorescence (red blood cells; 16C day 7): 1.58
- mean fluorescence (red blood cells; 16C day 14): 1.48
- mean fluorescence (red blood cells; 16C day 22): 1.58
- mean fluorescence (red blood cells; 16C day 28): 2.02
- mean fluorescence (red blood cells; 16C day 35): 1.62
- mean fluorescence (red blood cells; 16C day 43): 1.8
